From the supplement of paper PMC10307832

Columns and labels:
Test in all cases: relative viability (nuclei count vs DMSO), 5 days (fraction); higher = more cells survive
BAM7 + Luminespib = compound: CCOC1=CC=CC=C1N=NC2=C(NN(C2=O)C3=NC(=CS3)C4=CC=CC=C4)C [BAM7] + CCNC(=O)c1noc(-c2cc(C(C)C)c(O)cc2O)c1-c1ccc(CN2CCOCC2)cc1 [Luminespib] (partner 0.01 µM)
Outline: (§1)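 Dosing by pin tool came one day after lung cancer cell lines were seeded in 1536-well plates, using either one drug or a fixed anchor-drug dose plus five library-drug doses (not always all listed) in √10 steps. After 5 days, nuclei were counted on 4× images. Relative viability is treated-well nuclei count divided by vehicle-well nuclei count, and values are medians of duplicate plates.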

BAM7 + Pictilisib = compound: CCOC1=CC=CC=C1N=NC2=C(NN(C2=O)C3=NC(=CS3)C4=CC=CC=C4)C [BAM7] + CS(=O)(=O)N1CCN(Cc2cc3nc(-c4cccc5[nH]ncc45)nc(N4CCOCC4)c3s2)CC1 [Pictilisib] (partner 1 µM)
Outline: as §1

[1] = compound: CCn1c(-c2nonc2N)nc2c(C#CC(C)(C)O)ncc(OC[C@H]3CCCNC3)c21 + COc1cccc2cc(-c3nc([C@H]4CC[C@H](C(=O)O)CC4)n4ncnc(N)c34)[nH]c12 [OSI-027] (partner 0.5 µM)
Outline: as §1

[2] = compound: CCn1c(-c2nonc2N)nc2c(C#CC(C)(C)O)ncc(OC[C@H]3CCCNC3)c21 + NC(=O)Nc1cc(-c2cccc(F)c2)sc1C(=O)N[C@H]1CCCNC1 [AZD7762] (partner 0.2 µM)
Outline: as §1

Cell Line	relative viability (BAM7 + Luminespib; first compound 0.5 µM)	relative viability (BAM7 + Luminespib; first compound 5 µM)	relative viability (BAM7 + Luminespib; first compound 15.81 µM)	relative viability (BAM7 + Luminespib; first compound 50 µM)	relative viability (BAM7 + Pictilisib; first compound 0.5 µM)	relative viability (BAM7 + Pictilisib; first compound 5 µM)	relative viability (BAM7 + Pictilisib; first compound 15.81 µM)	relative viability (BAM7 + Pictilisib; first compound 50 µM)	relative viability ([1]; first compound 0.01 µM)	relative viability ([1]; first compound 0.03162 µM)	relative viability ([1]; first compound 0.1 µM)	relative viability ([1]; first compound 0.3162 µM)	relative viability ([1]; first compound 1 µM)	relative viability ([2]; first compound 0.01 µM)	relative viability ([2]; first compound 0.03162 µM)	relative viability ([2]; first compound 0.1 µM)	relative viability ([2]; first compound 0.3162 µM)	relative viability ([2]; first compound 1 µM)
201T	0.984	1.11	0.793	1.01	0.637	0.625	0.593	0.69	0.675	0.644	0.625	0.719	0.754	0.679	0.713	0.628	0.51	0.68
A549					0.566	0.507	0.483	0.508										
A-427	0.949	0.715	0.886	1.03	0.557	0.75	0.676	0.72	0.413	0.578	0.367	0.509	0.443	0.701	0.767	0.747	0.696	0.777
ABC-1	0.291	0.496	0.469	0.773	0.746	0.674	0.984	0.857	0.394	0.36	0.394	0.31	0.304	0.705		0.568	0.716	0.594
BEN	0.444	0.494	0.382	0.272	0.611	0.642	0.518	0.59	0.311	0.302	0.224	0.275	0.299	0.629	0.696	0.562	0.686	0.696
CAL-12T	0.327	0.374	0.491	0.508	0.467	0.526	0.413	0.466	0.424	0.541	0.685	0.453	0.38	0.556	0.651	0.567	0.624	0.708
COR-L23	0.635	0.661	0.601	0.647	0.832	0.855	0.743	0.872	0.839	0.698	0.687	0.478	0.384					
COR-L 105	0.668	0.892	0.706	0.734	0.366	0.427	0.432	0.455	0.664	0.802	0.59	0.52	0.499					
Calu-6					1.01	0.98	0.893	0.823										
ChaGo-K-1	0.509	0.573	0.58	0.613	0.647	0.878	0.789	0.929	0.556	0.561	0.504	0.518	0.6	0.87	0.885	0.868	0.836	0.758
EBC-1					0.359	0.375	0.328	0.307										
EKVX	0.909	0.925	0.618	0.803	0.458	0.512	0.335	0.415	0.685	0.671	0.678	0.686	0.752	0.699	0.687	0.632	0.732	0.596
EMC-BAC-2	1.13	1.28	1.12	1.15	0.521	0.542	0.595	0.559	0.341	0.379	0.354	0.369	0.336	1.11	1.04	1.08	0.94	1.17
EPLC-272H	0.317		0.317	0.507	0.358	0.327	0.323	0.347	0.303	0.261	0.262	0.314	0.264	0.198	0.171	0.17	0.192	0.211
H3255	0.801	1.12	0.787	1.03	0.544	0.652	0.568	0.579	0.683	0.658	0.607	0.539	0.528	0.857	0.943	1	0.839	0.846
HARA	0.678	0.868	0.682	0.66	0.327	0.267	0.334	0.264	0.5	0.575	0.368	0.472	0.459	0.269	0.629	0.485	0.156	0.299
HCC-15	0.338	0.439	0.4	0.187	0.818	0.802	0.764	0.747	0.576	0.602	0.626	0.575	0.595	1.2	1.26	1.17	1.13	1.37
HCC-44	1.38	1.07	1.03	0.957	0.593	0.65	0.534	0.634			0.484	0.372	0.499	1.03	0.946	0.997	1.12	1.08
HCC-78					0.178	0.177	0.213	0.245	0.405	0.386	0.325	0.331	0.341	0.627	0.532	0.579	0.614	0.445
HCC-366					0.163	0.163	0.141	0.0939	0.963	0.834	0.45	1	0.838	0.332	0.239	0.287	0.273	0.241
HCC-827	0.582	0.646	0.672	0.651	0.969	0.908	0.877	0.977	0.74	0.769	0.698	0.639	0.667	0.233	0.256	0.273	0.199	0.196
HOP-62	0.89	0.987	0.911	0.844	0.664	0.729	0.742	0.799	0.834	0.748	0.695	0.769	0.78	0.761	0.677	0.732	0.577	0.516
IA-LM					0.356	0.306	0.37	0.392										

Cell Line	relative viability (BAM7 + Luminespib; first compound 0.5 µM)	relative viability (BAM7 + Luminespib; first compound 5 µM)	relative viability (BAM7 + Luminespib; first compound 15.81 µM)	relative viability (BAM7 + Luminespib; first compound 50 µM)	relative viability (BAM7 + Pictilisib; first compound 0.5 µM)	relative viability (BAM7 + Pictilisib; first compound 5 µM)	relative viability (BAM7 + Pictilisib; first compound 15.81 µM)	relative viability (BAM7 + Pictilisib; first compound 50 µM)	relative viability ([1]; first compound 0.01 µM)	relative viability ([1]; first compound 0.03162 µM)	relative viability ([1]; first compound 0.1 µM)	relative viability ([1]; first compound 0.3162 µM)	relative viability ([1]; first compound 1 µM)	relative viability ([2]; first compound 0.01 µM)	relative viability ([2]; first compound 0.03162 µM)	relative viability ([2]; first compound 0.1 µM)	relative viability ([2]; first compound 0.3162 µM)	relative viability ([2]; first compound 1 µM)
LC-2-ad	1.06	1.26	0.951	1.03	0.581	0.222	0.383	0.427	0.71	0.804	0.871	0.681	0.857	0.86	0.874	0.885	0.839	0.867
LCLC-97TM1	0.848	0.803	0.825	1.01	0.218	0.197	0.172	0.2	0.49	0.502	0.484	0.515	0.439	0.279	0.269	0.206	0.292	0.294
LCLC-103H	0.837	0.919	0.946	0.979	0.611	0.654	0.604	0.687	0.463	0.477	0.481	0.425	0.356	0.752	0.862	0.743	0.668	0.696
LK-2	0.221	0.172	0.228	0.191	0.595	0.663	0.598	0.546	0.199	0.212	0.179	0.218	0.173	0.457	0.446	0.291	0.339	0.303
LOU-NH91	0.38	0.336	0.332	0.347	0.54	0.555	0.524	0.532	0.718	0.694	0.706	0.625	0.594	0.78	0.693	0.755	0.689	0.68
NCI-H520	0.207	0.236	0.243	0.222	0.273	0.3	0.264	0.324	0.221	0.266	0.208	0.183	0.173					
NCI-H522	1.2	1.2	1.11	0.993					0.673	0.691	0.741	0.634	0.748	0.726	0.763	0.838	0.686	0.772
NCI-H661	0.916	0.938	0.96	0.921	0.406	0.426	0.452	0.423	0.659	0.781	0.644	0.553	0.501					
NCI-H1299					0.675	0.779	0.782	0.824										
NCI-H1563	0.508	0.518	0.562	0.564	0.651	0.714	0.642	0.639	0.73	0.783	0.686	0.688	0.666					
NCI-H1623	0.491	0.595	0.526	0.6					0.391	0.423	0.485	0.438	0.395					
NCI-H1648										0.271	0.278	0.265	0.246	0.601	0.728	0.615	0.686	0.673
NCI-H1650	0.171	0.191	0.19	0.2	0.524	0.572	0.565	0.699	0.641	0.625	0.508	0.421	0.359					
NCI-H1703					0.23	0.262		0.256							0.123		0.0983	0.113
NCI-H2009	1.05	1.06	1.04	0.979	0.899	0.827	0.846	0.854	0.577	0.658	0.578	0.569	0.584					
NCI-H2023	0.939	0.613	0.586	0.721	0.277	0.245	0.3	0.297	0.369	0.411	0.307	0.202	0.195					
NCI-H2228	0.136	0.116	0.145	0.153	0.407	0.429	0.34	0.429	0.628	0.559	0.446	0.421	0.279					
NCI-H2342	0.691	0.726	0.768	0.735					0.598	0.617	0.517	0.546	0.594	0.444	0.482	0.498	0.534	0.455
SK-LU-1	0.217	0.18	0.2	0.186	0.502	0.658	0.678	0.737	0.387	0.365	0.318	0.29	0.343					
SK-MES-1	0.877	0.805	0.621	0.798	0.432	0.455	0.369	0.358	0.642	0.598	0.552	0.531	0.609					
SW 900	0.19	0.208	0.158	0.185					0.452	0.321	0.507	0.435	0.562	0.656	0.659	0.712	0.575	0.56
SW 1573	0.356	0.168	0.417	0.229	0.583	0.48	0.457	0.483	0.59	0.559	0.514	0.34	0.27					
